The results in this text go back to ChEMBL document CHEMBL1141418 (J Med Chem, 2007).

The target of assay [1] is T1, Vasopressin V1b receptor (Rattus norvegicus) (UniProt P48974).
T1 sequence (whole entry): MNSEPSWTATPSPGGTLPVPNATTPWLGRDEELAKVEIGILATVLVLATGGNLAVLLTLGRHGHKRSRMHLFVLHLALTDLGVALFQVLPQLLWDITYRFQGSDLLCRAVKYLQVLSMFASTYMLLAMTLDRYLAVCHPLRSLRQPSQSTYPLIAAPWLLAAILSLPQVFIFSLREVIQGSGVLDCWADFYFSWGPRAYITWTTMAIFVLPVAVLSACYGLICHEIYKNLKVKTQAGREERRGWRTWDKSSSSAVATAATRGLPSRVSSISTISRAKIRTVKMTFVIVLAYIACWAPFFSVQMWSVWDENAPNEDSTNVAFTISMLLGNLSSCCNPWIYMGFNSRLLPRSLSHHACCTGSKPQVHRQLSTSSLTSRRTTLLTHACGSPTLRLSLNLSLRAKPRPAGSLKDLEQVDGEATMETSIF
To be noted: AtT20, filed as agonist.

For another assay, the species on record is Rattus norvegicus. The assay can be described thus: Antidiuretic activity in rat. In kind it is functional, Urine.
Assay [2] has as its target Vasopressin V2 receptor (Rattus norvegicus) (UniProt Q00788). The assay can be described thus: Activity at vasopressin V2 receptor in rat kidney membranes assessed as adenylate cyclase activity. In kind it is functional, cell membranes. To be noted: Membrane, filed as agonist.

Sequence of Vasopressin V2 receptor (Rattus norvegicus) (Q00788 whole entry): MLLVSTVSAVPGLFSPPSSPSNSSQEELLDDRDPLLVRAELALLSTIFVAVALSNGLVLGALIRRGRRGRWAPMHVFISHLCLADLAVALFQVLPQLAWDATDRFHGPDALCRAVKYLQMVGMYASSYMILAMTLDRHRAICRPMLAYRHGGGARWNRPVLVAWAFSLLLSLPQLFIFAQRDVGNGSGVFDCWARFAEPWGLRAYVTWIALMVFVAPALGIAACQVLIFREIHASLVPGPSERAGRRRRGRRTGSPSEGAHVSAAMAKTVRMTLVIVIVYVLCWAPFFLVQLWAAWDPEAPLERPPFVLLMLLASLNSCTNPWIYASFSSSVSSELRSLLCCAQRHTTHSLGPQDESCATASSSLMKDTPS

Turning to `N=C(N)NCCC[C@H](NC(=O)[C@@H]1CCCN1C(=O)[C@@H]1CSSC[C@H](N)C(=O)N[C@@H](Cc2ccc(O)cc2)C(=O)N[C@@H](Cc2ccccc2)C(=O)N[C@@H](CCC(N)=O)C(=O)N[C@@H](CC(N)=O)C(=O)N1)C(=O)NCC(N)=O` [VASOPRESSIN], the Kact in assay [1] was 2.3 nM; in assay [2] it was 0.32 nM. The compound also had an Activity in the assay listed under Rattus norvegicus of 323 U/mg.
